Results as given in patent publication US20080194880A1, “Process For the Preparation of Polymorphs of Mesotrione” (priority 2004, published 2008).

Legend:
Type in all cases: physicochemical
[1] = Conversion of isolated Form 2 mesotrione to Form 1 in process filtrate with TEA and NaCl; conditions: not seeded
[2] = Polymorphic stability of pure mesotrione in aqueous suspension at pH 1 to 4
Experimental: 1.6 g of the re-crystallised mesotrione crystals were stirred with water (30 ml) in a reaction flask and the pH increased to 12 by the addition of sodium hydroxide. 1.5 ml of 10% hydrochloric acid was added over 15 minutes to reduce the pH of the solution to pH ranges between 1 and 4. The suspension was stirred and the polymorphic form of the crystals was determined as Form 2 by optical microscopy and FT-IR. Below pH 2.5, Form 2 transformed to Form 1 within 1 hour. At pH 3 Form 2 was stable but converted to Form 1 when seeded with Form 1 over four hours.

[3] = Conversion of in-process Form 2 mesotrione slurry from the crystallizer to Form 1; conditions: not seeded
From the text: This is an example of converting in process Form 2 mesotrione to Form 1 mesotrione. Form 2 material was made in the plant via a process upset. […]

[4] = Conversion of isolated Form 2 mesotrione to Form 1 in process filtrate
[5] = Conversion of isolated Form 2 mesotrione to Form 1 in water in the presence of xylene at different pH; conditions: xylene:mesotrione 1:5, 21 °C
From the text: This is an example of the conversion of already isolated Form 2 mesotrione to Form 1 mesotrione in the presence of solvent. A 10% solution of Form 2 in water was made at different pH values ranging from 2 to 6. If seeded, a seed concentration of 2% Form 1 relative to the Form 2 mesotrione concentration was used. A 1:5 ratio of xylene to mesotrione was used in these experiments. Actual conversion time may be less than shown.

[6] = Stabilising Form 2 mesotrione in a 0.05% Rhodasurf DA630 solution; conditions: pH 5.5, after 10 days
Experimental: 0.5 g of Form 2 mesotrione crystals were stirred with a 0.05% Rhodasurf DA630 (15 ml) in a reaction flask. A pH probe was placed in the system and the pH was increased to 11.5 by the addition of 0.6 ml of 10% sodium hydroxide solution. The pH of the solution was reduced to 5.5 by the addition of 0.74 g of Form 2 mesotrione. The polymorphic form of the mesotrione was monitored periodically by microscopy and FT-IR.

With CS(=O)(=O)c1ccc(C(=O)C2C(=O)CCCC2=O)c([N+](=O)[O-])c1 [Form 2 mesotrione, 2-(4-methylsulphonyl-2-nitrobenzoyl)cyclohexane-1,3-dione] the Hours to convert ([1]; Example 3A: process filtrate, temp 40, pH 1.8, no meso:TEA or meso:NaCl ratio printed, agitated) was 17 h, the Hours to convert ([1]; Example 3B: process filtrate, temp 50, pH 2.0, meso:TEA 1:1.3, meso:NaCl 2:1, agitated) was 1 h and the Hours to convert ([1]; Example 3C: process filtrate, temp 50, pH 2.0, meso:TEA 1:1.3, meso:NaCl 2:1, agitated) was 5 h. The Hours to convert ([1]; Example 3D: process filtrate, temp 50, pH 1.8, meso:TEA 1:1.3, meso:NaCl 2:1, agitated) was 4 h, the “Transformation of Form 2 to Form 1” value ([2]; aqueous suspension, pH between 3.5 and 4, heated to 40° C., 1% by weight of Form 1 seeds added) was “would not transform to Form 1” and the “Polymorphic form of the suspension” value ([2]; pH between 3.5 and 4, determined periodically over the next 3 weeks) was “always found to be Form 2”. The “Transformation of Form 2 to Form 1” value ([2]; pH between 3.5 and 4, samples taken several months later) was “had not transformed to Form 1”, the “Time for Form 2 to transform to Form 1” value ([2]; stirred aqueous suspension, below pH 2.5) was ≤ 1 h and the “Polymorphic stability of Form 2” value ([2]; stirred aqueous suspension, pH 3, not seeded) was “stable”. The “Time for Form 2 to convert to Form 1” value ([2]; stirred aqueous suspension, pH 3, seeded with Form 1) was “four”, the Hours to convert ([3]; Example 2A: Form 2 slurry, 20° C., pH 3.2, not agitated, did not convert after 4-5 days) was “Did not” and the Hours to convert ([3]; Example 2B: Form 2 slurry, 40° C., pH 2.0, agitated) was 4 h. For the same compound, the Hours to convert ([3]; Example 2C: Form 2 slurry, 50° C., pH 2.0, agitated) was 1.4 h, the Hours to convert ([3]; Example 2D: Form 2 slurry, 50° C., pH 2.9, agitated) was 1.8 h and the Hours to convert ([3]; Example 2E: Form 2 slurry, 40° C., pH 2.0, agitated) was 4 h. For the same compound, the Hours to convert ([4]; Example 4A: process filtrate, temp 22, pH 3.6, agitated, seeded, did not convert after 52 hrs) was “Did not”, the Hours to convert ([4]; Example 4B: process filtrate, temp 22, pH 3.6, agitated, seeded, did not convert after 48 hrs) was “Did not” and the Hours to convert ([4]; Example 4C: process filtrate, temp 30, pH 3.6, agitated, seeded, did not convert after 18 hrs) was “Did not”. The Hours to convert ([4]; Example 4D: process filtrate, temp 50, pH 2.0, agitated, not seeded) was 2 h, the Hours to convert ([4]; Example 4E: process filtrate, temp 50, pH 1.8, agitated, not seeded) was 2 h and the Hours to convert ([4]; Example 4F: process filtrate, temp 50, pH 1.8, not agitated, not seeded) was 2 h. For the same compound, the “Dominant Polymorph Form (IR)” value ([5]; Example 1A: 10% Form 2 in water, 6.3 hr, pH 2.0, seeded 2% Form 1) was 1, the “Dominant Polymorph Form (IR)” value ([5]; Example 1B: 10% Form 2 in water, 6.3 hr, pH 2.9, seeded 2% Form 1) was 2 and the “Dominant Polymorph Form (IR)” value ([5]; Example 1C: 10% Form 2 in water, 6.3 hr, pH 4.1, seeded 2% Form 1) was 2. For the same compound, the “Dominant Polymorph Form (IR)” value ([5]; Example 1D: 10% Form 2 in water, 6.3 hr, pH 5.9, seeded 2% Form 1) was 2, the “Dominant Polymorph Form (IR)” value ([5]; Example 1E: 10% Form 2 in water, 6.3 hr, pH 2.5, seeded 2% Form 1) was 1 and the “Dominant Polymorph Form (IR)” value ([5]; Example 1F: 10% Form 2 in water, 6.3 hr, pH 5.1, seeded 2% Form 1) was 2. The “Dominant Polymorph Form (IR)” value ([5]; Example 1G: 10% Form 2 in water, 23.3 hr, pH 2.0, seeded 2% Form 1) was 1, the “Dominant Polymorph Form (IR)” value ([5]; Example 1H: 10% Form 2 in water, 23.3 hr, pH 2.9, seeded 2% Form 1) was 2 and the “Dominant Polymorph Form (IR)” value ([5]; Example 1I: 10% Form 2 in water, 23.5 hr, pH 5.9, seeded 2% Form 1) was 2. For the same compound, the “Dominant Polymorph Form (IR)” value ([5]; Example 1J: 10% Form 2 in water, 23.5 hr, pH 2.5, seeded 2% Form 1) was 1, the “Dominant Polymorph Form (IR)” value ([5]; Example 1K: 10% Form 2 in water, 23.5 hr, pH 2.0, not seeded) was 1 and the “Dominant Polymorph Form (IR)” value ([5]; Example 1L: 10% Form 2 in water, 22.0 hr, pH 2.0, not seeded) was 1. For the same compound, the “Dominant Polymorph Form (IR)” value ([5]; Example 1M: 10% Form 2 in water, 22.0 hr, pH 4.0, not seeded) was 2 and the “Polymorphic form (microscopy and FT-IR)” value [6] was “still predominately Form 2”.
